According to PubChem BioAssay AID1259407 (Chemical Carcinogenesis Research Information System (CCRIS), 2018):
The source made the active and inactive calls. The rule behind the calls is not given here.

System: CCRIS mutagenicity, Ames/micronucleus/aberration tests
Test: CCRIS mutagenicity studies

Q: What does the source list for CC(=O)Oc1ccccc1C(=O)O?
A: mutagenic call (End Point: IN VITRO MICRONUCLEUS, Test System: CHL/IU CELLS, Metabolic Activation: NONE): active; positive; mutagenic call (End Point: IN VITRO MICRONUCLEUS, Test System: RAT KIDNEY FIBROBLAST NRK-49F, Metabolic Activation: NONE): inactive; negative; mutagenic call (Test System: AMES SALMONELLA TYPHIMURIUM, Strain/Indicator: TA97, Metabolic Activation: HAMSTER, LIVER, S-9, AROCLOR 1254 (10%), Method: PREINCUBATION): inactive; negative; mutagenic call (Test System: AMES SALMONELLA TYPHIMURIUM, Strain/Indicator: TA97, Metabolic Activation: HAMSTER, LIVER, S-9, AROCLOR 1254 (30%), Method: PREINCUBATION): inactive; negative; mutagenic call (Test System: AMES SALMONELLA TYPHIMURIUM, Strain/Indicator: TA97, Metabolic Activation: NONE, Method: PREINCUBATION): inactive; negative; mutagenic call (Test System: AMES SALMONELLA TYPHIMURIUM, Strain/Indicator: TA97, Metabolic Activation: RAT, LIVER, S-9, AROCLOR 1254 (10%), Method: PREINCUBATION): inactive; negative; mutagenic call (Test System: AMES SALMONELLA TYPHIMURIUM, Strain/Indicator: TA97, Metabolic Activation: RAT, LIVER, S-9, AROCLOR 1254 (30%), Method: PREINCUBATION): inactive; negative; mutagenic call (Test System: AMES SALMONELLA TYPHIMURIUM, Strain/Indicator: TA98, Metabolic Activation: GUINEA PIG, LIVER, S-9, PCB, Method: PREINCUBATION): inactive; negative; mutagenic call (Test System: AMES SALMONELLA TYPHIMURIUM, Strain/Indicator: TA98, Metabolic Activation: HAMSTER, LIVER, S-9, AROCLOR 1254 (10%), Method: PREINCUBATION): inactive; negative; mutagenic call (Test System: AMES SALMONELLA TYPHIMURIUM, Strain/Indicator: TA98, Metabolic Activation: HAMSTER, LIVER, S-9, AROCLOR 1254 (30%), Method: PREINCUBATION): inactive; negative; mutagenic call (Test System: AMES SALMONELLA TYPHIMURIUM, Strain/Indicator: TA98, Metabolic Activation: HAMSTER, LIVER, S-9, AROCLOR 1254, Method: STANDARD PLATE): inactive; negative; mutagenic call (Test System: AMES SALMONELLA TYPHIMURIUM, Strain/Indicator: TA98, Metabolic Activation: HAMSTER, LIVER, S-9, PCB, Method: PREINCUBATION): inactive; negative; mutagenic call (Test System: AMES SALMONELLA TYPHIMURIUM, Strain/Indicator: TA98, Metabolic Activation: MOUSE, LIVER, S-9, AROCLOR 1254, Method: STANDARD PLATE): inactive; negative; mutagenic call (Test System: AMES SALMONELLA TYPHIMURIUM, Strain/Indicator: TA98, Metabolic Activation: MOUSE, LIVER, S-9, PCB, Method: PREINCUBATION): inactive; negative; mutagenic call (Test System: AMES SALMONELLA TYPHIMURIUM, Strain/Indicator: TA98, Metabolic Activation: NONE, Method: PREINCUBATION): inactive; negative; mutagenic call (Test System: AMES SALMONELLA TYPHIMURIUM, Strain/Indicator: TA98, Metabolic Activation: NONE, Method: STANDARD PLATE): inactive; negative; mutagenic call (Test System: AMES SALMONELLA TYPHIMURIUM, Strain/Indicator: TA98, Metabolic Activation: RAT, LIVER, S-9, AROCLOR 1254 (10%), Method: PREINCUBATION): inactive; negative; mutagenic call (Test System: AMES SALMONELLA TYPHIMURIUM, Strain/Indicator: TA98, Metabolic Activation: RAT, LIVER, S-9, AROCLOR 1254 (30%), Method: PREINCUBATION): inactive; negative; mutagenic call (Test System: AMES SALMONELLA TYPHIMURIUM, Strain/Indicator: TA98, Metabolic Activation: RAT, LIVER, S-9, AROCLOR 1254, Method: STANDARD PLATE): inactive; negative; mutagenic call (Test System: AMES SALMONELLA TYPHIMURIUM, Strain/Indicator: TA98, Metabolic Activation: RAT, LIVER, S-9, PCB, Method: PREINCUBATION): inactive; negative; mutagenic call (Test System: AMES SALMONELLA TYPHIMURIUM, Strain/Indicator: TA98, Metabolic Activation: RAT, LIVER, S-9, PCB, Method: STANDARD PLATE): inactive; negative; mutagenic call (Test System: AMES SALMONELLA TYPHIMURIUM, Strain/Indicator: TA100, Metabolic Activation: GUINEA PIG, LIVER, S-9, PCB, Method: PREINCUBATION): inactive; negative; mutagenic call (Test System: AMES SALMONELLA TYPHIMURIUM, Strain/Indicator: TA100, Metabolic Activation: HAMSTER, LIVER, S-9, AROCLOR 1254 (10%), Method: PREINCUBATION): inactive; negative; mutagenic call (Test System: AMES SALMONELLA TYPHIMURIUM, Strain/Indicator: TA100, Metabolic Activation: HAMSTER, LIVER, S-9, AROCLOR 1254 (30%), Method: PREINCUBATION): inactive; negative; mutagenic call (Test System: AMES SALMONELLA TYPHIMURIUM, Strain/Indicator: TA100, Metabolic Activation: HAMSTER, LIVER, S-9, AROCLOR 1254, Method: STANDARD PLATE): inactive; negative; mutagenic call (Test System: AMES SALMONELLA TYPHIMURIUM, Strain/Indicator: TA100, Metabolic Activation: HAMSTER, LIVER, S-9, PCB, Method: PREINCUBATION): inactive; negative; mutagenic call (Test System: AMES SALMONELLA TYPHIMURIUM, Strain/Indicator: TA100, Metabolic Activation: MOUSE, LIVER, S-9, AROCLOR 1254, Method: STANDARD PLATE): inactive; negative; mutagenic call (Test System: AMES SALMONELLA TYPHIMURIUM, Strain/Indicator: TA100, Metabolic Activation: MOUSE, LIVER, S-9, PCB, Method: PREINCUBATION): inactive; negative; mutagenic call (Test System: AMES SALMONELLA TYPHIMURIUM, Strain/Indicator: TA100, Metabolic Activation: NONE, Method: PREINCUBATION): inactive; negative; mutagenic call (Test System: AMES SALMONELLA TYPHIMURIUM, Strain/Indicator: TA100, Metabolic Activation: NONE, Method: STANDARD PLATE): inactive; negative; mutagenic call (Test System: AMES SALMONELLA TYPHIMURIUM, Strain/Indicator: TA100, Metabolic Activation: RAT, LIVER, S-9, AROCLOR 1254 (10%), Method: PREINCUBATION): inactive; negative; mutagenic call (Test System: AMES SALMONELLA TYPHIMURIUM, Strain/Indicator: TA100, Metabolic Activation: RAT, LIVER, S-9, AROCLOR 1254 (30%), Method: PREINCUBATION): inactive; negative; mutagenic call (Test System: AMES SALMONELLA TYPHIMURIUM, Strain/Indicator: TA100, Metabolic Activation: RAT, LIVER, S-9, AROCLOR 1254, Method: STANDARD PLATE): inactive; negative; mutagenic call (Test System: AMES SALMONELLA TYPHIMURIUM, Strain/Indicator: TA100, Metabolic Activation: RAT, LIVER, S-9, PCB, Method: PREINCUBATION): inactive; negative; mutagenic call (Test System: AMES SALMONELLA TYPHIMURIUM, Strain/Indicator: TA100, Metabolic Activation: RAT, LIVER, S-9, PCB, Method: STANDARD PLATE): inactive; negative; mutagenic call (Test System: AMES SALMONELLA TYPHIMURIUM, Strain/Indicator: TA1535, Metabolic Activation: HAMSTER, LIVER, S-9, AROCLOR 1254 (10%), Method: PREINCUBATION): inactive; negative; mutagenic call (Test System: AMES SALMONELLA TYPHIMURIUM, Strain/Indicator: TA1535, Metabolic Activation: HAMSTER, LIVER, S-9, AROCLOR 1254 (30%), Method: PREINCUBATION): inactive; negative; mutagenic call (Test System: AMES SALMONELLA TYPHIMURIUM, Strain/Indicator: TA1535, Metabolic Activation: HAMSTER, LIVER, S-9, AROCLOR 1254, Method: STANDARD PLATE): inactive; negative; mutagenic call (Test System: AMES SALMONELLA TYPHIMURIUM, Strain/Indicator: TA1535, Metabolic Activation: MOUSE, LIVER, S-9, AROCLOR 1254, Method: STANDARD PLATE): inactive; negative; mutagenic call (Test System: AMES SALMONELLA TYPHIMURIUM, Strain/Indicator: TA1535, Metabolic Activation: NONE, Method: PREINCUBATION): inactive; negative; mutagenic call (Test System: AMES SALMONELLA TYPHIMURIUM, Strain/Indicator: TA1535, Metabolic Activation: NONE, Method: STANDARD PLATE): inactive; negative; mutagenic call (Test System: AMES SALMONELLA TYPHIMURIUM, Strain/Indicator: TA1535, Metabolic Activation: RAT, LIVER, S-9, AROCLOR 1254 (10%), Method: PREINCUBATION): inactive; negative; mutagenic call (Test System: AMES SALMONELLA TYPHIMURIUM, Strain/Indicator: TA1535, Metabolic Activation: RAT, LIVER, S-9, AROCLOR 1254 (30%), Method: PREINCUBATION): inactive; negative; mutagenic call (Test System: AMES SALMONELLA TYPHIMURIUM, Strain/Indicator: TA1535, Metabolic Activation: RAT, LIVER, S-9, AROCLOR 1254, Method: STANDARD PLATE): inactive; negative; mutagenic call (Test System: AMES SALMONELLA TYPHIMURIUM, Strain/Indicator: TA1537, Metabolic Activation: HAMSTER, LIVER, S-9, AROCLOR 1254, Method: STANDARD PLATE): inactive; negative; mutagenic call (Test System: AMES SALMONELLA TYPHIMURIUM, Strain/Indicator: TA1537, Metabolic Activation: MOUSE, LIVER, S-9, AROCLOR 1254, Method: STANDARD PLATE): inactive; negative; mutagenic call (Test System: AMES SALMONELLA TYPHIMURIUM, Strain/Indicator: TA1537, Metabolic Activation: NONE, Method: STANDARD PLATE): inactive; negative; mutagenic call (Test System: AMES SALMONELLA TYPHIMURIUM, Strain/Indicator: TA1537, Metabolic Activation: RAT, LIVER, S-9, AROCLOR 1254, Method: STANDARD PLATE): inactive; negative; mutagenic call (Test System: AMES SALMONELLA TYPHIMURIUM, Strain/Indicator: TA1537, Metabolic Activation: RAT, LIVER, S-9, PCB, Method: STANDARD PLATE): inactive; negative; mutagenic call (Test System: AMES SALMONELLA TYPHIMURIUM, Strain/Indicator: TA1538, Metabolic Activation: HAMSTER, LIVER, S-9, AROCLOR 1254, Method: STANDARD PLATE): inactive; negative; mutagenic call (Test System: AMES SALMONELLA TYPHIMURIUM, Strain/Indicator: TA1538, Metabolic Activation: MOUSE, LIVER, S-9, AROCLOR 1254, Method: STANDARD PLATE): inactive; negative; mutagenic call (Test System: AMES SALMONELLA TYPHIMURIUM, Strain/Indicator: TA1538, Metabolic Activation: NONE, Method: STANDARD PLATE): inactive; negative; mutagenic call (Test System: AMES SALMONELLA TYPHIMURIUM, Strain/Indicator: TA1538, Metabolic Activation: RAT, LIVER, S-9, AROCLOR 1254, Method: STANDARD PLATE): inactive; negative; mutagenic call (Test System: AMES SALMONELLA TYPHIMURIUM, Strain/Indicator: TA1538, Metabolic Activation: RAT, LIVER, S-9, PCB, Method: STANDARD PLATE): inactive; negative; mutagenic call (Test System: E. COLI, Strain/Indicator: WP2 UVRA, Metabolic Activation: HAMSTER, LIVER, S-9, AROCLOR 1254, Method: STANDARD PLATE): inactive; negative; mutagenic call (Test System: E. COLI, Strain/Indicator: WP2 UVRA, Metabolic Activation: HAMSTER, LIVER, S-9, Method: STANDARD PLATE): inactive; negative; mutagenic call (Test System: E. COLI, Strain/Indicator: WP2 UVRA, Metabolic Activation: MOUSE, LIVER, S-9, AROCLOR 1254, Method: STANDARD PLATE): inactive; negative; mutagenic call (Test System: E. COLI, Strain/Indicator: WP2 UVRA, Metabolic Activation: MOUSE, LIVER, S-9, Method: STANDARD PLATE): inactive; negative; mutagenic call (Test System: E. COLI, Strain/Indicator: WP2 UVRA, Metabolic Activation: NONE, Method: STANDARD PLATE): inactive; negative; mutagenic call (Test System: E. COLI, Strain/Indicator: WP2 UVRA, Metabolic Activation: RAT, LIVER, S-9, AROCLOR 1254, Method: STANDARD PLATE): inactive; negative; mutagenic call (Test System: E. COLI, Strain/Indicator: WP2 UVRA, Metabolic Activation: RAT, LIVER, S-9, PCB, Method: STANDARD PLATE): inactive; negative; mutagenic call (Test System: E. COLI, Strain/Indicator: WP2 UVRA, Metabolic Activation: RAT, LIVER, S-9, Method: STANDARD PLATE): inactive; negative
